Test results as given in the supplement of paper PMC11061612.

What was measured:
Assay in all cases: combination Emax (second highest fraction inhibited in the dose matrix, 72 h); higher = more inhibition; extreme values may be limits of the assay
[1] = tested on: NCI-H835 (Other Solid Carcinomas)
How it was run: (§1)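 Cell lines grown in DMEM/F12 or RPMI with 10% FBS were plated in 1536-well plates and held 24 hours at 37°C, 5% CO2 before 72 hours of exposure to two-drug dose matrices, with DMSO typically at 0.2%. CellTiter-Glo 2.0 luminescence gave viability, which was converted to inhibition. Vehicle wells were set to 0 and blank wells to 1. Combination Emax is the second-highest inhibition in the matrix, and Bliss excess is the observed combination effect minus the expected EA + EB − EA·EB, where EA and EB are the single-agent effects.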

SK-MEL-24 (Melanoma) = tested on: SK-MEL-24 (Melanoma)
How it was run: as §1

[2] = tested on: SBC-3 (Small Cell Lung Carcinoma)
How it was run: as §1

[3] = tested on: CAL-85-1 (Breast Carcinoma)
How it was run: as §1

[4] = tested on: KNS-62 (Squamous Cell Lung Carcinoma)
How it was run: as §1

[5] = tested on: BC-1 (B-Cell Non-Hodgkin's Lymphoma)
How it was run: as §1

[6] = tested on: NCI-H1435 (Non-Small Cell Lung Carcinoma)
How it was run: as §1

[7] = tested on: RPMI-8402 (T-Lymphoblastic Leukemia)
How it was run: as §1

A375 (Melanoma) = tested on: A375 (Melanoma)
How it was run: as §1

C32 (Melanoma) = tested on: C32 (Melanoma)
How it was run: as §1

[8] = tested on: GRANTA-519 (B-Cell Non-Hodgkin's Lymphoma)
How it was run: as §1

[9] = tested on: JJN-3 (Plasma Cell Myeloma)
How it was run: as §1

SK-N-DZ (Neuroblastoma) = tested on: SK-N-DZ (Neuroblastoma)
How it was run: as §1

HT-144 (Melanoma) = tested on: HT-144 (Melanoma)
How it was run: as §1

[10] = tested on: IGROV-1 (Ovarian Carcinoma)
How it was run: as §1

[11] = tested on: Daudi (Burkitt's Lymphoma)
How it was run: as §1

Row | Structure (SMILES) | combination Emax [1] | combination Emax (SK-MEL-24 (Melanoma)) | combination Emax [2] | combination Emax [3] | combination Emax [4] | combination Emax [5] | combination Emax [6] | combination Emax [7] | combination Emax (A375 (Melanoma)) | combination Emax (C32 (Melanoma)) | combination Emax [8] | combination Emax [9] | combination Emax (SK-N-DZ (Neuroblastoma)) | combination Emax (HT-144 (Melanoma)) | combination Emax [10] | combination Emax [11]
1 | C[C@@H](Nc1cc(F)cc(F)c1)c1cc(C(=O)N(C)C)cc2c(=O)cc(N3CCOCC3)oc12 [AZD8186] + CC(=O)c1c(C)c2cnc(Nc3ccc(N4CCNCC4)cn3)nc2n(C2CCCC2)c1=O [Palbociclib] (first compound max 10 µM, 7x7, partner max 10 µM) | 0.802 | 0.449 | 0.709 | 0.164 | 0.358 | 0.93 | 0.361 | 0.9 | 0.42 | 0.342 |  |  |  |  |  | 
2 | C[C@@H](Oc1cc(-c2cnn(C3CCNCC3)c2)cnc1N)c1c(Cl)ccc(F)c1Cl [Crizotinib] + CC1=C(C(=CC=C1)Cl)NC(=O)C2=CN=C(S2)NC3=CC(=NC(=N3)C)N4CCN(CC4)CCO [Dasatinib] (first compound max 10 µM, 7x7, partner max 2 µM) | 0.854 | 0.871 | 0.957 | 0.778 | 0.302 | 0.94 | 0.255 | 0.971 | 0.502 | 0.425 |  |  |  |  |  | 
3 | C[C@@H](Oc1cc(-c2cnn(C3CCNCC3)c2)cnc1N)c1c(Cl)ccc(F)c1Cl [Crizotinib] + Cn1cnc2c(F)c(Nc3ccc(Br)cc3Cl)c(C(=O)NOCCO)cc21 [Selumetinib] (first compound max 10 µM, 7x7, partner max 10 µM) | 0.646 | 0.93 | 0.97 | 0.412 | 0.369 | 0.838 | 0.136 | 0.99 | 0.938 | 0.995 |  |  |  |  |  | 
4 | CS(=O)(=O)CCNCc1ccc(-c2ccc3ncnc(Nc4ccc(OCc5cccc(F)c5)c(Cl)c4)c3c2)o1 [Lapatinib] + Cn1cnc2c(F)c(Nc3ccc(Br)cc3Cl)c(C(=O)NOCCO)cc21 [Selumetinib] (first compound max 10 µM, 7x7, partner max 10 µM) | 0.257 | 0.853 | 0.321 | 0.85 | 0.626 | 0.787 | 0.559 | 0.924 | 0.736 | 0.935 |  |  |  |  |  | 
5 | O=C(c1cc(Cc2n[nH]c(=O)c3ccccc23)ccc1F)N1CCN(C(=O)C2CC2)CC1 [Olaparib] + CC1(C)CCC(CN2CCN(c3ccc(C(=O)NS(=O)(=O)c4ccc(NCC5CCOCC5)c([N+](=O)[O-])c4)c(Oc4cnc5[nH]ccc5c4)c3)CC2)=C(c2ccc(Cl)cc2)C1 [Venetoclax] (first compound max 10 µM, 7x7, partner max 1 µM) | 0.169 | 0.0984 | 0.665 | 0.239 | 0.147 | 0.252 | 0.117 | 0.53 | 0.176 | 0.145 |  |  |  |  |  | 
6 | O=C(c1cc(Cc2n[nH]c(=O)c3ccccc23)ccc1F)N1CCN(C(=O)C2CC2)CC1 [Olaparib] + CN(CC[C@H](CSC1=CC=CC=C1)NC2=C(C=C(C=C2)S(=O)(=O)NC(=O)C3=CC=C(C=C3)N4CCC(CC4)[C@H](C5=CC=CC=C5C6=CC=C(C=C6)Cl)O)S(=O)(=O)C(F)(F)F)CCO [AZD4320] (first compound max 10 µM, 7x7, partner max 1 µM) | 0.951 | 0.177 | 0.842 | 0.342 | 0.153 | 0.348 | 0.729 | 0.935 | 0.24 | 0.253 |  |  |  |  |  | 
7 | O=C(c1cc(Cc2n[nH]c(=O)c3ccccc23)ccc1F)N1CCN(C(=O)C2CC2)CC1 [Olaparib] + COc1nnc2ccc(N3CCC(c4ccc(OCCN5CCN(C)C(=O)[C@H]5C)cc4)CC3)nn12 [AZD5153] (first compound max 10 µM, 7x7, partner max 1 µM) | 0.403 | 0.419 | 0.703 | 0.613 | 0.436 | 0.873 | 0.223 | 0.9 | 0.425 | 0.22 |  |  |  |  |  | 
8 | CC(=O)c1c(C)c2cnc(Nc3ccc(N4CCNCC4)cn3)nc2n(C2CCCC2)c1=O [Palbociclib] + CN(CC[C@H](CSC1=CC=CC=C1)NC2=C(C=C(C=C2)S(=O)(=O)NC(=O)C3=CC=C(C=C3)N4CCC(CC4)[C@H](C5=CC=CC=C5C6=CC=C(C=C6)Cl)O)S(=O)(=O)C(F)(F)F)CCO [AZD4320] (first compound max 10 µM, 7x7, partner max 1 µM) |  |  |  |  |  |  |  |  | 0.373 | 0.209 | 0.903 | 0.388 | 0.992 | 0.753 | 0.793 | 0.561
9 | Cc1nc(-c2cn3c(n2)-c2ccc(-c4cnn(C(C)(C)C(N)=O)c4)cc2OCC3)n(C(C)C)n1 [Taselisib] + O=C(Nc1ccc2[nH]nc(-c3ccncc3)c2c1)[C@@H]1CCN(CC(=O)N2CCN(c3ccc(-c4ncccn4)cc3)CC2)C1 [SCH772984] (first compound max 10 µM, 7x7, partner max 5 µM) | 0.71 | 0.93 | 0.76 | 0.935 | 0.787 | 0.652 | 0.791 | 0.898 | 0.918 | 1 |  |  |  |  |  | 
